Holding throughout (assay type): cell-based
One assay deals with E. faecalis MGH-2 EF 1-1. Nature of the assay: in vitro antibacterial activity (MIC), E. faecalis. Particulars: Enterococcus faecalis, MGH2EF11. The source says:
(§1) The in vitro antibacterial activity of the compounds of the present invention may be assessed by following procedures recommended in (1) National Committee for Clinical Laboratory Standards (January 2003), Methods for dilution antimicrobial tests for bacteria that grow aerobically, Approved Standard (6th ed), M7-A6, NCCLS, Wayne, Pa.; (2) National Committee for Clinical Laboratory Standards (March 2001), Methods for antimicrobial susceptibility testing of anaerobic bacteria, Approved Standard (5th ed), M11-A4, NCCLS, Wayne, Pa.; (3) National Committee for Clinical Laboratory Standards (Jan. 2003), MIC testing supplemental tables, M100-S13 (for use with M7-A6), NCCLS, Wayne, Pa.; and (4) Murray P R, Baron E J, Jorgensen J H, et al. Manual of Clinical Microbiology (8th ed) Washington, D.C.: American Society for Microbiology Press, 2003. The MIC value is the lowest concentration of drug which prevented macroscopically visible growth under the conditions of the test.

A further assay relates to S. aureus UC-76 SA-1. Nature of the assay: in vitro antibacterial activity (MIC), S. aureus. Particulars: for MIC90: Staphylococcus aureus, UC76, S. aureus UC-76 SA-1.
Text: as §1

The subject of another assay is S. pneumoniae SV1 SP-3. Kind of assay: in vitro antibacterial activity (MIC), S. pneumoniae. Particulars: Streptococcus pneumoniae, SV1SP3.
Text: as §1

Converted amounts (≈) assume the structure as drawn.

One may read the MIC90 as an inhibitory concentration at the 90% level, which refers to growth in some studies and to a panel of isolates in others. A low value points to greater potency. As to `CCC(=O)NC[C@H]1CN(c2ccc3c(c2)CC(=O)N3CCF)C(=O)O1` [Example 10, (S)—N-{3-[1-(2-fluoro-ethyl)-2-oxo-2,3-dihydro-1H-indol-5-yl]-2-oxo-oxazolidin-5-ylmethyl}-propionamide], the values for the MIC90 against E. faecalis MGH-2 EF 1-1, in the assay on S. aureus UC-76 SA-1 and in the assay with S. pneumoniae SV1 SP-3 were 2 µg/mL (≈ 5.72 µM), 8 µg/mL (≈ 22.9 µM) and 2 µg/mL (≈ 5.72 µM), respectively. Moreover, in the assay on S. aureus UC-76 SA-1 (S. aureus UC-76 SA-1), the “in vitro antibacterial activity MIC90” value came to 4 µg/mL.
With `CC(=O)NC[C@H]1CN(c2ccc3c(c2)CC(=O)N3C2CC2)C(=O)O1` [Example 21, (S)—N-[3-(1-cyclopropyl-2-oxo-2,3-dihydro-1H-indol-5-yl)-2-oxo-oxazolidin-5-ylmethyl]-acetamide], the MIC90 was found to be 4 µg/mL (≈ 12.1 µM) against E. faecalis MGH-2 EF 1-1, 8 µg/mL (≈ 24.3 µM) in the assay with S. aureus UC-76 SA-1 and 2 µg/mL (≈ 6.07 µM) against S. pneumoniae SV1 SP-3.
Regarding `CCC(=O)NC[C@H]1CN(c2ccc3c(c2)CC(=O)N3C2CC2)C(=O)O1` [Example 22, (S)—N-[3-(1-cyclopropyl-2-oxo-2,3-dihydro-1H-indol-5-yl)-2-oxo-oxazolidin-5-ylmethyl]-propionamide], the MIC90 against E. faecalis MGH-2 EF 1-1 was 4 µg/mL (≈ 11.6 µM); with S. aureus UC-76 SA-1, 8 µg/mL (≈ 23.3 µM); with S. pneumoniae SV1 SP-3, 4 µg/mL (≈ 11.6 µM).
On to `CCC(=O)NC[C@H]1CN(c2ccc3c(c2)CC(=O)N3CC)C(=O)O1` [Example 6, (S)—N-[3-(1-ethyl-2-oxo-2,3-dihydro-1H-indol-5-yl)-2-oxo-oxazolidin-5-ylmethyl]-propionamide], for which the MIC90 in the assay on E. faecalis MGH-2 EF 1-1 was determined as 2 µg/mL (≈ 6.04 µM); against S. aureus UC-76 SA-1, 4 µg/mL (≈ 12.1 µM); in the assay on S. pneumoniae SV1 SP-3, 2 µg/mL (≈ 6.04 µM).
As for `CC(=O)NC[C@H]1CN(c2cc(F)c3c(c2)CC(=O)N3CC2CC2)C(=O)O1` [Example 29, (S)—N-[3-(1-cyclopropylmethyl-7-fluoro-2-oxo-2,3-dihydro-1H-indol-5-yl)-2-oxo-oxazolidin-5-ylmethyl]-acetamide], the MIC90 in the assay on E. faecalis MGH-2 EF 1-1, against S. aureus UC-76 SA-1 and in the assay with S. pneumoniae SV1 SP-3 was 2 µg/mL (≈ 5.53 µM) in each case.
Take `CCC(=O)NC[C@H]1CN(c2ccc3c(c2)CC(=O)N3CC2CC2)C(=O)O1` [Example 27, (S)—N-[3-(1-cyclopropylmethyl-2-oxo-2,3-dihydro-1H-indol-5-yl)-2-oxo-oxazolidin-5-ylmethyl]-propionamide]: the MIC90 came out at 8 µg/mL (≈ 22.4 µM) in the assay with E. faecalis MGH-2 EF 1-1, 8 µg/mL (≈ 22.4 µM) in the assay with S. aureus UC-76 SA-1 and 4 µg/mL (≈ 11.2 µM) with S. pneumoniae SV1 SP-3.
On to `CCC(=O)NC[C@H]1CN(c2cc(F)c3c(c2)CC(=O)N3C(C)C)C(=O)O1` [Example 16, (S)—N-[3-(7-fluoro-1-isopropyl-2-oxo-2,3-dihydro-1H-indol-5-yl)-2-oxo-oxazolidin-5-ylmethyl]-propionamide], for which the MIC90 in the assay on E. faecalis MGH-2 EF 1-1 amounted to 4 µg/mL (≈ 11 µM); against S. aureus UC-76 SA-1, 8 µg/mL (≈ 22 µM); against S. pneumoniae SV1 SP-3 it was 4 µg/mL (≈ 11 µM).
As for `CC(=O)NC[C@H]1CN(c2ccc3c(c2)CC(=O)N3C(C)C)C(=O)O1` [Example 13, (S)—N-[3-(1-isopropyl-2-oxo-2,3-dihydro-1H-indol-5-yl)-2-oxo-oxazolidin-5-ylmethyl]-acetamide], the MIC90 against E. faecalis MGH-2 EF 1-1 was found to be 4 µg/mL (≈ 12.1 µM); in the assay on S. aureus UC-76 SA-1, 4 µg/mL (≈ 12.1 µM); against S. pneumoniae SV1 SP-3, 2 µg/mL (≈ 6.04 µM).
As to `CCN1C(=O)Cc2cc(N3C[C@H](CNC(C)=O)OC3=O)ccc21` [Example 5, (S)—N-[3-(1-ethyl-2-oxo-2,3-dihydro-1H-indol-5-yl)-2-oxo-oxazolidin-5-ylmethyl]-acetamide], the MIC90 came out at 8 µg/mL (≈ 25.2 µM) in the assay on E. faecalis MGH-2 EF 1-1, 8 µg/mL (≈ 25.2 µM) against S. aureus UC-76 SA-1 and 2 µg/mL (≈ 6.3 µM) against S. pneumoniae SV1 SP-3.
Consider `CCN1C(=O)Cc2cc(N3C[C@H](CNC(C)=O)OC3=O)cc(F)c21` [Example 7, (S)—N-[3-(1-ethyl-7-fluoro-2-oxo-2,3-dihydro-1H-indol-5-yl)-2-oxo-oxazolidin-5-ylmethyl]-acetamide], for which the MIC90 against E. faecalis MGH-2 EF 1-1, against S. aureus UC-76 SA-1 and against S. pneumoniae SV1 SP-3 was 2 µg/mL (≈ 5.96 µM) in each case.
Regarding `CCC(=O)NC[C@H]1CN(c2cc(F)c3c(c2)CC(=O)N3C)C(=O)O1` [Example 4, (S)—N-[3-(7-fluoro-1-methyl-2-oxo-2,3-dihydro-1H-indol-5-yl)-2-oxo-oxazolidin-5-ylmethyl]-propionamide], the results for the MIC90 in the assay on E. faecalis MGH-2 EF 1-1, with S. aureus UC-76 SA-1 and in the assay with S. pneumoniae SV1 SP-3 were 4 µg/mL (≈ 11.9 µM), 8 µg/mL (≈ 23.9 µM) and 2 µg/mL (≈ 5.96 µM), respectively.
In the case of `CC(=O)NC[C@H]1CN(c2ccc3c(c2)CC(=O)N3C(C)CF)C(=O)O1` (stereo partly drawn) [Example 28, (S)—N-{3-[1-(2-fluoro-1-methyl-ethyl)-2-oxo-2,3-dihydro-1H-indol-5-yl]-2-oxo-oxazolidin-5-ylmethyl}-acetamide], the MIC90 in the assay with E. faecalis MGH-2 EF 1-1 turned out to be 4 µg/mL (≈ 11.4 µM); with S. aureus UC-76 SA-1 it was 8 µg/mL (≈ 22.9 µM); with S. pneumoniae SV1 SP-3, 2 µg/mL (≈ 5.72 µM).
On to `CCCN1C(=O)Cc2cc(N3C[C@H](CNC(=O)CC)OC3=O)cc(F)c21` [Example 20, (S)—N-[3-(7-Fluoro-2-oxo-1-propyl-2,3-dihydro-1H-indol-5-yl)-2-oxo-oxazolidin-5-ylmethyl]-propionamide], for which the MIC90 in the assay with E. faecalis MGH-2 EF 1-1 worked out at 8 µg/mL (≈ 22 µM); in the assay with S. aureus UC-76 SA-1 it was 8 µg/mL (≈ 22 µM); against S. pneumoniae SV1 SP-3, 4 µg/mL (≈ 11 µM).
Turning to `CCC(=O)NC[C@H]1CN(c2ccc3c(c2)CC(=O)N3C(C)C)C(=O)O1` [Example 14, (S)—N-[3-(1-isopropyl-2-oxo-2,3-dihydro-1H-indol-5-yl)-2-oxo-oxazolidin-5-ylmethyl]-propionamide], the MIC90 against E. faecalis MGH-2 EF 1-1 stood at 8 µg/mL (≈ 23.2 µM); in the assay on S. aureus UC-76 SA-1, 8 µg/mL (≈ 23.2 µM); against S. pneumoniae SV1 SP-3, 4 µg/mL (≈ 11.6 µM).
In the case of `CCC(=O)NC[C@H]1CN(c2ccc3c(c2)CC(=O)N3C)C(=O)O1` [Example 2, (S)—N-[3-(1-methyl-2-oxo-2,3-dihydro-1H-indol-5-yl)-2-oxo-oxazolidin-5-ylmethyl]-propionamide], the MIC90 in the assay with E. faecalis MGH-2 EF 1-1 was found to be 2 µg/mL (≈ 6.3 µM); with S. aureus UC-76 SA-1, 8 µg/mL (≈ 25.2 µM); in the assay with S. pneumoniae SV1 SP-3, 1 µg/mL (≈ 3.15 µM).
On to `CCCN1C(=O)Cc2cc(N3C[C@H](CNC(C)=O)OC3=O)ccc21` [Example 17, (S)—N-[2-oxo-3-(2-oxo-1-propyl-2,3-dihydro-1H-indol-5-yl)-oxazolidin-5-ylmethyl]-acetamide], for which the MIC90 came out at 4 µg/mL (≈ 12.1 µM) in the assay on E. faecalis MGH-2 EF 1-1, 4 µg/mL (≈ 12.1 µM) against S. aureus UC-76 SA-1 and 2 µg/mL (≈ 6.04 µM) with S. pneumoniae SV1 SP-3.
Turning to `CCCN1C(=O)Cc2cc(N3C[C@H](CNC(=O)CC)OC3=O)ccc21` [Example 18, (S)—N-[2-oxo-3-(2-oxo-1-propyl-2,3-dihydro-1H-indol-5-yl)-oxazolidin-5-ylmethyl]-propionamide], the MIC90 against E. faecalis MGH-2 EF 1-1 was found to be 8 µg/mL (≈ 23.2 µM); against S. aureus UC-76 SA-1, 8 µg/mL (≈ 23.2 µM); against S. pneumoniae SV1 SP-3 it was 4 µg/mL (≈ 11.6 µM).
Take `CC(=O)NC[C@H]1CN(c2ccc3c(c2)CC(=O)N3C)C(=O)O1` [Example 1, (S)—N-[3-(1-methyl-2-oxo-2,3-dihydro-1H-indol-5-yl)-2-oxo-oxazolidin-5-ylmethyl]-acetamide]: the values for the MIC90 in the assay with E. faecalis MGH-2 EF 1-1, against S. aureus UC-76 SA-1 and against S. pneumoniae SV1 SP-3 were 2 µg/mL (≈ 6.59 µM), 8 µg/mL (≈ 26.4 µM) and 1 µg/mL (≈ 3.3 µM), respectively.
Taken in the same sequence, the figures for `CC(=O)NC[C@H]1CN(c2cc(F)c3c(c2)CC(=O)N3C(C)C)C(=O)O1` [Example 15, (S)—N-[3-(7-fluoro-1-isopropyl-2-oxo-2,3-dihydro-1H-indol-5-yl)-2-oxo-oxazolidin-5-ylmethyl]-acetamide] were 2 µg/mL (≈ 5.72 µM), 4 µg/mL (≈ 11.4 µM) and 2 µg/mL (≈ 5.72 µM).
The corresponding values for `CC(=O)NC[C@H]1CN(c2ccc3c(c2)CC(=O)N3CCF)C(=O)O1` [Example 9, (S)—N-{3-[1-(2-fluoro-ethyl)-2-oxo-2,3-dihydro-1H-indol-5-yl]-2-oxo-oxazolidin-5-ylmethyl}-acetamide] are 2 µg/mL (≈ 5.96 µM), 8 µg/mL (≈ 23.9 µM) and 2 µg/mL (≈ 5.96 µM).
Regarding `CC(=O)NC[C@H]1CN(c2ccc3c(c2)CC(=O)N3CC2CC2)C(=O)O1` [Example 26, (S)—N-[3-(1-cyclopropylmethyl-2-oxo-2,3-dihydro-1H-indol-5-yl)-2-oxo-oxazolidin-5-ylmethyl]-acetamide], the MIC90 in the assay with E. faecalis MGH-2 EF 1-1 was 4 µg/mL (≈ 11.6 µM); in the assay with S. aureus UC-76 SA-1, 8 µg/mL (≈ 23.3 µM); in the assay on S. pneumoniae SV1 SP-3, 4 µg/mL (≈ 11.6 µM).
Consider `CC(=O)NC[C@H]1CN(c2cc(F)c3c(c2)CC(=O)N3C2CC2)C(=O)O1` [Example 23, (S)—N-[3-(1-cyclopropyl-7-fluoro-2-oxo-2,3-dihydro-1H-indol-5-yl)-2-oxo-oxazolidin-5-ylmethyl]-acetamide], for which the MIC90 in the assay on E. faecalis MGH-2 EF 1-1 worked out at 4 µg/mL (≈ 11.5 µM); in the assay with S. aureus UC-76 SA-1, 8 µg/mL (≈ 23 µM); in the assay with S. pneumoniae SV1 SP-3, 4 µg/mL (≈ 11.5 µM).
`CCC(C)N1C(=O)Cc2cc(N3C[C@H](CNC(C)=O)OC3=O)ccc21` (stereo partly drawn) [Example 24, (S)—N-[3-(1-sec-butyl-2-oxo-2,3-dihydro-1H-indol-5-yl)-2-oxo-oxazolidin-5-ylmethyl]-acetamide]: the MIC90 was 4 µg/mL (≈ 11.6 µM) in the assay with E. faecalis MGH-2 EF 1-1, 8 µg/mL (≈ 23.2 µM) against S. aureus UC-76 SA-1 and 4 µg/mL (≈ 11.6 µM) in the assay on S. pneumoniae SV1 SP-3.
On to `CCC(=O)NC[C@H]1CN(c2ccc3c(c2)CC(=O)N3C(C)CC)C(=O)O1` (stereo partly drawn) [Example 25, (S)—N-[3-(1-sec-butyl-2-oxo-2,3-dihydro-1H-indol-5-yl)-2-oxo-oxazolidin-5-ylmethyl]-propionamide], for which the MIC90 against E. faecalis MGH-2 EF 1-1, in the assay with S. aureus UC-76 SA-1 and with S. pneumoniae SV1 SP-3 was 8 µg/mL (≈ 22.3 µM) each time.
For `CC(=O)NC[C@H]1CN(c2cc(F)c3c(c2)CC(=O)N3CCF)C(=O)O1` [Example 11, (S)—N-{3-[7-fluoro-1-(2-fluoro-ethyl)-2-oxo-2,3-dihydro-1H-indol-5-yl]-2-oxo-oxazolidin-5-ylmethyl}-acetamide], the MIC90 against E. faecalis MGH-2 EF 1-1 is 2 µg/mL (≈ 5.66 µM); against S. aureus UC-76 SA-1, 4 µg/mL (≈ 11.3 µM); in the assay on S. pneumoniae SV1 SP-3, 1 µg/mL (≈ 2.83 µM).
The corresponding values for `CC(=O)NC[C@H]1CN(c2cc(F)c3c(c2)CC(=O)N3C)C(=O)O1` [Example 3, N-[3-(7-fluoro-1-methyl-2-oxo-2,3-dihydro-1H-indol-5-yl)-2-oxo-oxazolidin-5-ylmethyl]-acetamide] are 4 µg/mL (≈ 12.4 µM), 4 µg/mL (≈ 12.4 µM) and 2 µg/mL (≈ 6.22 µM).

The record behind these values is patent publication US20080262056A1, “Oxindole Oxazolidinones as Antibacterial Agents” (Pfizer Inc, priority 2004, published 2008).
